From ChEMBL document CHEMBL1146761, “Synthesis and biological activity of novel platinum(II) complexes of glutamate tethered to hydrophilic hematoporphyrin derivatives” (Bioorg Med Chem Lett, 2004) come the findings set out here.

Experiment [1] has as its system L1210. The experiment in a line: In vitro cytotoxicity activity of compound against leukemia L1210 cell line. The format is functional, cell-based, Mus musculus.
Experiment [2] concerns Mus musculus. Description: In vivo antitumor activity of compound against leukemia L1210 cell line at 60/30 mg/kg; value expressed as 97/107. The format is functional.
Experiment [3] relates to Mus musculus. Description: In vivo antitumor activity of compound against leukemia L1210 cell line at 60/30 mg/kg; value expressed as 102/106. The format is functional.
The subject of experiment [4] is Mus musculus. The experiment in a line: In vivo antitumor activity of compound against leukemia L1210 cell line at 40 mg/kg. The format is functional, organism-based. Further details: dose 40 mg/kg.
Experiment [5] relates to Mus musculus. The experiment in a line: In vivo antitumor activity of compound against leukemia L1210 cell line at 4 mg/kg. Further details: dose 4 mg/kg. The format is functional, organism-based.

For the compound CARBOPLATIN [listing 1 of 2 here], in experiment [1] (l1210), the midpoint of inhibition, the IC50, lay at 9.92 µM.
In the case of `COCCOC(C)c1c(C)c2cc3[nH]c(cc4nc(cc5nc(cc1[nH]2)C(C)=C5CCC(=O)O)C(CCC(=O)O)=C4C)c(C)c3C(C)OCCOC` (configuration not stated), the IC50 in experiment [1] (Mus musculus, L1210) was determined as 2.6 µM. The compound also came in with a T/C in experiment [2] of 107%.
For `COCCOCCOCCOC(C)c1c(C)c2cc3[nH]c(cc4nc(cc5nc(cc1[nH]2)C(C)=C5CCC(=O)O)C(CCC(=O)O)=C4C)c(C)c3C(C)OCCOCCOCCOC` (configuration not stated), the IC50 in experiment [1] (Mus musculus, L1210) amounted to 6.6 µM. In experiment [3], this compound showed a T/C of 106%.
In experiment [4], CARBOPLATIN [listing 2 of 2 here] showed a T/C of 168%.
On to CISPLATIN, for which, in experiment [5], the T/C turned out to be 184%.
